Measured values: patent publication US20250129082A1, “N-1 Triazole Substituted Imidazoquinolines, Conjugates Thereof, and Methods” (Solventumn Intellectual Properties Company, priority 2021, published 2025)

Tests used:
Assay type in all cases: cell-based
human TLR7 = molecular target: T1, human TLR7 (Homo sapiens, UniProt Q9NYK1); assay: TLR activation and specificity, HEK-BLUE-hTLR7 SEAP reporter cells; details: 16-20 hours, lowest concentration giving SEAP response at least 2× vehicle control, tested 0.01-30 micromolar
T1 construct: host or cells: HEK293 (HEK-BLUE-hTLR7)
T1 sequence (Q9NYK1 27-1049): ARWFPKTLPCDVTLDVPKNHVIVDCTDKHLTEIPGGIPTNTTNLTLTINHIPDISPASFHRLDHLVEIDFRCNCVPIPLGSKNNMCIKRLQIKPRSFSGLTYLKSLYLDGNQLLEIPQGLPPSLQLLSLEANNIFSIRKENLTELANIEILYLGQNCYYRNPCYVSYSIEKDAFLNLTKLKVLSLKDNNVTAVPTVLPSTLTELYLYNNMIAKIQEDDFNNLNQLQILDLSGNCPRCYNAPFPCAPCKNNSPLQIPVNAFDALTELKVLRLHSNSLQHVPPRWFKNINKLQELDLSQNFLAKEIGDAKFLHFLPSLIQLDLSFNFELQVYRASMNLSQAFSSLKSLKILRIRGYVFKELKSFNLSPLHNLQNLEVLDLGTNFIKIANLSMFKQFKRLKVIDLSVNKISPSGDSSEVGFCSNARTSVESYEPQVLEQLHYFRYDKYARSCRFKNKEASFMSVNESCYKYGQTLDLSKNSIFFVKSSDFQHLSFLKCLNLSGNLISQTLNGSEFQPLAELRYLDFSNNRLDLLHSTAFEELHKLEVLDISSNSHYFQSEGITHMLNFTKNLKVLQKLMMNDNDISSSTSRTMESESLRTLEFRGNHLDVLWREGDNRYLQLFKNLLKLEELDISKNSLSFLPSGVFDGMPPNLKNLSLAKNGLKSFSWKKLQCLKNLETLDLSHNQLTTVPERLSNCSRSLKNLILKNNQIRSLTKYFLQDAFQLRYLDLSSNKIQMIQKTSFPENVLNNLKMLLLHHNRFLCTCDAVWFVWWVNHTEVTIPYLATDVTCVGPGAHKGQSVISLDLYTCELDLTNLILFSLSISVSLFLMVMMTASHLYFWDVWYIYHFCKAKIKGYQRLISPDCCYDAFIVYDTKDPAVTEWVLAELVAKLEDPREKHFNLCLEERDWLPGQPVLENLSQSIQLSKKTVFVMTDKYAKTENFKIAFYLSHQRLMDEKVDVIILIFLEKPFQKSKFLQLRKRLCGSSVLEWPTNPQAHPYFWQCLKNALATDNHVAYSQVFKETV
Procedure: (§1) HEK-BLUE-hTLR7 or hTLR8 reporter cells were obtained from InvivoGen, San Diego, CA. According to the manufacturer's description, these reporter cells were prepared by co-transfection of HEK293 cells with an inducible secreted embryonic alkaline phosphatase (SEAP) reporter gene and either the human TLR7 or TLR8 gene. The SEAP reporter gene was placed under the control of an IFN-β minimal promoter fused to five NF-κB and AP-1-binding sites. In the presence of a TLR ligand, activation of NF-κB and AP-1 occurs, resulting in a corresponding increase in SEAP levels.
(§2) In the assay, the HEK cells were grown and maintained using standard cell culture techniques in a growth medium that contained Dulbecco's Modified Eagle Medium (ThermoFisher Scientific Incorporated, Waltham, MA) supplemented with 1% penicillin/streptomycin and 10% heat-inactivated Gibco fetal bovine serum (ThermoFisher Scientific). Each compound was solubilized in DMSO to create a 3 mM stock solution. The stock solution was then further diluted with the growth medium to prepare serial dilutions. Each test compound was tested at a concentration of 30, 10, 3.3, 1.1, 0.37, 0.12, 0.04, and 0.01 micromolar using a 96-well format with 5×10^4 cells and 200 microliters of growth medium per well.
(§3) For each compound, hTLR7, hTLR8, and their respective null control HEK cells were screened. DMSO serially diluted into the growth medium served as the vehicle control. Cell culture supernatants containing the SEAP reporter were collected after an incubation period of 16-20 hours in a cell culture incubator (37° C. and 5% CO2), and either analyzed immediately or stored at −80° C. SEAP levels were measured using the colorimetric enzyme assay (QUANTI-BLUE (InvivoGen) according to manufacturer's instructions.
(§4) Specifically, the minimum effective concentration of each compound (micromolar) was determined as the lowest concentration of the compound that produced a SEAP expression response at least 2× greater than that observed with the vehicle control wells.

[1] = test system: Human peripheral blood mononuclear cells (PBMC); assay: Cytokine induction in human cells (PBMC), Ella Simple Plex ELISA; details: 21-24 hours, tested 0.01-30 micromolar; for MEC to Induce Cytokine, IFN-alpha: lowest concentration inducing IFN-alpha at least 2× negative control; for MEC to Induce Cytokine, IFN-gamma: lowest concentration inducing IFN-gamma at least 2× negative control; for MEC to Induce Cytokine, TNF-alpha: lowest concentration inducing TNF-alpha at least 2× negative control
Procedure: Whole blood was obtained from healthy human donors and collected by venipuncture into vacutainer tubes or syringes containing EDTA. Human peripheral blood mononuclear cells (PBMC) were purified from the whole blood by density gradient centrifugation. Histopaque 1077 (15 mL, Sigma-Aldrich) was transferred to 6×50 mL sterile polypropylene conical tubes. The Histopaque was overlayed with 15-25 mL of blood diluted 1:2 in Hank's Balanced Salts Solution (HBSS) (Gibco, Life Technologies, Grand Island, NY). The tubes were then centrifuged at 1370 rpm for 30 minutes at 20° C., with no brake (400λg, GH 3.8A Rotor).
The interface (buffy coat) containing the PBMC was collected and placed in a new sterile 50 mL conical polypropylene centrifuge tube. The PBMC were mixed with an equal volume of HBSS (about 20 mL from the interface and about 20 mL of HBSS), and then centrifuged at 1090 rpm, 10 minutes, 20° C., with brake (270λg, GH 3.8A Rotor). After completing centrifugation, the cells were resuspended in 2-3 mL ACK Red blood cell lysis buffer (ammonium chloride potassium solution, Gibco, Life Technologies) and incubated for 2-5 minutes at 20° C. Next, HBSS (40 mL) was added to the cells, and the sample was centrifuged at 270×g for 10 minutes at 20° C. The supernatant was decanted, and the cell pellet was resuspended in 5 mL AIM V Medium (Gibco, Life Technologies). Cell aggregates and debris were removed by filtering the cell solution through a BD Falcon 70 micron nylon cell strainer (BD Biosciences, San Jose, CA).
The number of viable cells was determined by counting with a Moxi Z instrument (ORFLO Technologies, Ketchum, ID) or by using a hemacytometer. For determining cell viability with a hemacytometer, the cells were diluted 1/10 in 0.4% trypan blue and HBSS (specifically, 50 microliter of trypan blue+40 microliter of HBSS+10 microliter of cell solution were added to a microfuge tube and mixed). Ten microliters of the diluted cells were then applied to the hemacytometer, and the number of viable PBMC were determined by microscopy.
The PBMC sample was then resuspended in 96-well plates at a concentration of 8×10^5 cells/well in 0.1 mL of AIM-V medium. Each compound was solubilized in DMSO to create a 3 mM stock solution. The stock solution was then further diluted with AIM-V medium to prepare the serial dilutions. The diluted compound (100 microliters) was then transferred to the PBMCs to produce testing sets with final compound concentrations of 30, 10, 3.3, 1.1, 0.37, 0.12, 0.04, 0.01 micromolar. The plates also had both positive and negative controls. The negative control wells contained only AIM-V medium with no example compound. The positive control wells contained a control set of imiquimod serially diluted to concentrations of 30, 10, 3.3, 1.1, 0.37, 0.12, 0.04, 0.01 micromolar. The concentrations used in the control set were selected to match the concentrations used in the testing set. The plates were then cultured at 37° C./5% CO2 for 21-24 hours. Cell-free supernatants were harvested by centrifuging the 96-well plates at 2100 rpm, 23° C. for 10 minutes. Approximately 160 microliters of the supernatant was then stored in a NUNC 96-well plate, covered with the compression cap and stored at −80° C. until the cytokine analysis was done.
Cytokine levels (human IFN-alpha multisubtype, human IFN-gamma, and human TNF-alpha) were measured in picograms/mL by Ella Simple Plex ELISA (ProteinSimple, San Jose, CA) according to the manufacturer's instructions.
Specifically, the minimum effective concentration of each compound (micromolar) was determined as the lowest concentration of the compound that induced a measured cytokine response at a level ([…]) that was at least 2× greater than that observed with the negative control wells.

human TLR8 = molecular target: T2, human TLR8 (Homo sapiens, UniProt Q9NR97); assay: TLR activation and specificity, HEK-BLUE-hTLR8 SEAP reporter cells; details: 16-20 hours, lowest concentration giving SEAP response at least 2× vehicle control, tested 0.01-30 micromolar
T2 construct: host or cells: HEK293 (HEK-BLUE-hTLR8)
T2 sequence (Q9NR97 27-1041): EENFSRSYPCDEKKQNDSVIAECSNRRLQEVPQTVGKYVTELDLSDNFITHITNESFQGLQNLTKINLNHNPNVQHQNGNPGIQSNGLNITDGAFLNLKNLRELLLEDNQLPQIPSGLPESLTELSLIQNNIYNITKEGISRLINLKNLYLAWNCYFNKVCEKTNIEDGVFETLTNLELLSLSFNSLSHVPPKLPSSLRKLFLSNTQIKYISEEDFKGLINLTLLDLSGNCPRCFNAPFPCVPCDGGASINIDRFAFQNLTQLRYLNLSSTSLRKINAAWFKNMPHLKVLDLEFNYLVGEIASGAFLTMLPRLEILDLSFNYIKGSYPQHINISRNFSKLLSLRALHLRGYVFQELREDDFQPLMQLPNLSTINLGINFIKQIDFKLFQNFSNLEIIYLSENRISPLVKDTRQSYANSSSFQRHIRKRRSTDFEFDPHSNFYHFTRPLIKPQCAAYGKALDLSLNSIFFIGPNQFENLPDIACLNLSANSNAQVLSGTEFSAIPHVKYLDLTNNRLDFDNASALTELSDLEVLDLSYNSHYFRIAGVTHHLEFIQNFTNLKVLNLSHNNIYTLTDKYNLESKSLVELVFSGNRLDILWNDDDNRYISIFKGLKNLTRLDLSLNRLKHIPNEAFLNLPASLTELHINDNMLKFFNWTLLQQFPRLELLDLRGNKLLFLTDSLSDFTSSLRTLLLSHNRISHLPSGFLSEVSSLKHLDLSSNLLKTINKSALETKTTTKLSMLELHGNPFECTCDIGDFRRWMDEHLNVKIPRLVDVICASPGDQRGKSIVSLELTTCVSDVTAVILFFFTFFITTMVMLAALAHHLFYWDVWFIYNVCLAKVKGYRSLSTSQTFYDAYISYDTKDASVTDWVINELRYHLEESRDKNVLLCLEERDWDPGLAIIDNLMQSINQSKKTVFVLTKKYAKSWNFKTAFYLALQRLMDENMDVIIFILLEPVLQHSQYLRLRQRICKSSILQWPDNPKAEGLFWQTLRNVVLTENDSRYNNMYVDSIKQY
Procedure: as §1, §2, §3, §4

Row | MEC to Produce TLR Activation, TLR 7 (human TLR7) | MEC to Produce TLR Activation, TLR 8 (human TLR8) | SMILES | MEC to Induce Cytokine, IFN-alpha [1] | MEC to Induce Cytokine, IFN-gamma [1] | MEC to Induce Cytokine, TNF-alpha [1]
1 | ≤0.01 µM | 10 µM | CCOC[C@H](Cc1ccc(OCCN=[N+]=[N-])cc1)n1cnc2c(N)nc3ccccc3c21 [Example 1, (S)-1-(1-(4-(2-azidoethoxy)phenyl)-3-ethoxypropan-2-yl)-1H-imidazo[4,5-c]quinolin-4-amine] | ≤0.01 µM | ≤0.01 µM | ≤0.01 µM
2 | ≤0.01 µM | 3.3 µM | CCOC[C@H](Cc1ccc(OCCn2cc(-c3ccccc3)nn2)cc1)n1cnc2c(N)nc3ccccc3c21 [Example 2, (S)-1-(1-ethoxy-3-(4-(2-(4-phenyl-1H-1,2,3-triazol-1-yl)ethoxy)phenyl)propan-2-yl)-1H-imidazo[4,5-c]quinolin-4-amine] | ≤0.01 µM | ≤0.01 µM | ≤0.01 µM
3 | 1.1 µM | >30 µM | CCOC[C@H](Cc1ccc(OCCCCCCCCCCCN=[N+]=[N-])cc1)n1cnc2c(N)nc3ccccc3c21 [Example 3, (S)-1-(1-(4-((11-azidoundecyl)oxy)phenyl)-3-ethoxypropan-2-yl)-1H-imidazo[4,5-c]quinolin-4-amine] | 3.3 µM | >30 µM | 1.1 µM
4 | 3.3 µM | 3.3 µM | CCOC[C@H](Cc1ccc(OCCCCCCCCCCCn2cc(-c3ccccc3)nn2)cc1)n1cnc2c(N)nc3ccccc3c21 [Example 4, (S)-1-(1-ethoxy-3-(4-((11-(4-phenyl-1H-1,2,3-triazol-1-yl)undecyl)oxy)phenyl)propan-2-yl)-1H-imidazo[4,5-c]quinolin-4-amine] | 3.3 µM | 10 µM | 3.3 µM
